Assay results published in patent US9320772B2, “Herbal composition for treating anxiety related conditions” (OPMOP LTD., priority 2010, dated 2016).
Entries after “also recorded” stand apart in the source; their conditions may differ.

Legend:
[1] = tested on: mice subjected to maternal separation and unpredictable mild stress; assay: Elevated plus maze, treatment during stress; type: in vivo; conditions: 15 mg/kg i.p., 28 days during stress; control (saline) 44 seconds; p<0.05
Method: (§1) The day following parturition, postnatal day (PND) 1, the litters underwent a Maternal Separation (MS) procedure that was carried out once a day from PND 1-14. At the age of 21 days, all pups were weaned and sexed. 90 male mice were tagged, weighed, and separated into cages of up to five mice per cage, assigned randomly into four groups of treatment as previously described. Between the age of 28 and 56 days (Adolescence), mice were subjected to an Unpredictable Mild Stress paradigm. In this experiment three different stressors were used—all mice were subjected once a day to one of the following stressors: restrainers; placement in an empty cage with water at the bottom; or inversion of light/dark cycle. To prevent habituation and to provide an unpredictable feature to the stressors, every day different stressor was administered for four hours, at different time points of the day. During the entire stress paradigm, drugs were administrated through i.p. injection of the relevant treatment, for the duration of 28 days. Upon reaching adulthood and following four weeks of treatment, behavior, peripheral hormones and brain monoamines were measured in order to assess the effects of the novel treatment. […]

Corticosterone [2] = assay: Corticosterone levels following acute restraint stress (RIA), treatment during stress; type: in vivo, mice; conditions: escitalopram group (15 mg/kg as previously described), 28 days during stress; control 80.9 ng/ml; p<0.05
Method: as §1, with “treatment. In order to estimate the endocrinological reaction to acute stress, mice were first placed in restrainers.” for “treatment.”

BALB mice = assay: Novel open field test after acute stress (Yohimibine injection); type: in vivo; conditions: 15 mg/kg/day i.p., three weeks of treatment, after Yohimibine i.p. 1.25 mg/kg, p<0.05 adaptogenic mixture, p<0.0.1 escitalopram
Method: FIG. 2A: Effect of treatment in the novel open field Test following one week of treatment. FIG. 2B: Effect of treatment in the novel open field Test following two weeks of treatment. […] Mice were treated through i.p. injection with the adaptogenic mixture (15 mg/kg/day), escitalopram (15 mg/kg/day) or vehicle. The acute stress was obtained with Yohimibine i.p injection, a drug known to activate a stress-reaction (Vasa et al., 2009). […] The Novel Open Field is another well-established test of anxiety-related behavior in rodents. The Open Field area generally consists of an empty and bright square arena, surrounded by walls to prevent the rodent from escaping. The rodent is usually placed in the center of the arena and its behavior recorded over a chosen period. The Novel Open Field task approaches the conflict between the innate fear that rodents have of the central area of a novel or brightly lit open field versus their desire to explore new environments. When anxious, the natural tendency of rodents is to prefer staying close to the walls. In this context, anxiety-related behavior is measured by the degree to which the rodent avoids the center of the arena.

ICR mice = assay: Elevated plus maze after maternal separation and unpredictable chronic mild stress, treatment after stress; type: in vivo; conditions: stressed ICR mice, 15 mg/kg i.p., 21 days, p<0.05
Method: On the day of parturition, PND 0 (postnatal day), litters were randomly assigned to undergo MS or to be standard facility reared (SFR) controls. SFR animals were left undisturbed during the entire stress manipulation (both maternal separation and unpredictable chronic mild stress manipulation), except for routine cage maintenance performed once a week. MS procedure was carried out once per day from PND 1-14. The MS procedure was performed by removing the pups from the home cage and placing them together in a separate clean cage placed on a heating pad (30-33° C.) in order to keep the pups in a temperature close to the dam's natural body temperature. 6 hours later, pups were returned to their home cage. […] Elevated plus-maze: Each mouse was placed in the center of the elevated plus maze and his behavior was recorded for the duration of 5 minutes. […] Subsequent to the stress manipulations, anxiety-like behavior was assessed via the elevated plus maze in order to assess the effect of the stress manipulations. […] Following three weeks of treatment with the relevant drug or vehicle, anxiety-like behavior was assessed via the elevated plus maze. 48 hours thereafter and while mice were still receiving treatment, blood samples were collected following acute stress and Corticosterone levels were measured via radio immunoassay (RIA) assay. […]

[3] = tested on: mice subjected to maternal separation and unpredictable mild stress; assay: Sucrose test, treatment during stress; type: in vivo; conditions: escitalopram group (15 mg/kg as previously described) i.p., 28 days during stress; control (saline) 51 ml; p<0.05
Method: The day following parturition, postnatal day (PND) 1, the litters underwent a Maternal Separation (MS) procedure that was carried out once a day from PND 1-14. At the age of 21 days, all pups were weaned and sexed. 90 male mice were tagged, weighed, and separated into cages of up to five mice per cage, assigned randomly into four groups of treatment as previously described. Between the age of 28 and 56 days (Adolescence), mice were subjected to an Unpredictable Mild Stress paradigm. In this experiment three different stressors were used—all mice were subjected once a day to one of the following stressors: restrainers; placement in an empty cage with water at the bottom; or inversion of light/dark cycle. To prevent habituation and to provide an unpredictable feature to the stressors, every day different stressor was administered for four hours, at different time points of the day. During the entire stress paradigm, drugs were administrated through i.p. injection of the relevant treatment, for the duration of 28 days. Upon reaching adulthood and following four weeks of treatment, behavior, peripheral hormones and brain monoamines were measured in order to assess the effects of the novel treatment. […] After the 12 hours, the amount of ordinary water, sucrose water and food eaten by the mouse, was calculated. […]

Corticosterone [4] = assay: Corticosterone levels following acute restraint stress (RIA), treatment after chronic stress; type: in vivo; conditions: stressed ICR mice, 15 mg/kg i.p., 3 weeks, p<0.05 adaptogenic mixture, p<0.01 escitalopram
Method: In order to estimate the endocrinology reaction to acute stress mice were first placed in restraint. Restraint stress is a well documented stressor that initiates an acute transient increase in plasma ACTH and Corticosterone, usually peaking during the course of a 60 min stress exposure. Therefore, following 60 minutes of subjection to restraint stress, blood samples were collected into EDTA-coated tubes from the facial vein. All blood samples were kept on ice and later centrifuged for 10 min at 10000 rpm at 4°. Plasma was transferred to clean, labeled 1.5 ml microcentrifuge tubes. All plasma samples were stored frozen at −20 C.° until the determination of Corticosterone via RIA. Subsequent to the stress manipulations, anxiety-like behavior was assessed via the elevated plus maze in order to assess the effect of the stress manipulations. […] Following three weeks of treatment with the relevant drug or vehicle, anxiety-like behavior was assessed via the elevated plus maze. 48 hours thereafter and while mice were still receiving treatment, blood samples were collected following acute stress and Corticosterone levels were measured via radio immunoassay (RIA) assay. […] Anxiety-related behaviors were assessed using the elevated-plus maze and indicated anxiogenic effect of the stress manipulation. […]

[5] = tested on: Brain-derived neurotrophic factor (BDNF); assay: Hippocampal BDNF levels by EIA, treatment during stress; type: in vivo, mice; conditions: escitalopram group (15 mg/kg as previously described), 28 days during stress; control (saline) 12 pc/μg; p<0.05
Method: The day following parturition, postnatal day (PND) 1, the litters underwent a Maternal Separation (MS) procedure that was carried out once a day from PND 1-14. At the age of 21 days, all pups were weaned and sexed. 90 male mice were tagged, weighed, and separated into cages of up to five mice per cage, assigned randomly into four groups of treatment as previously described. Between the age of 28 and 56 days (Adolescence), mice were subjected to an Unpredictable Mild Stress paradigm. In this experiment three different stressors were used—all mice were subjected once a day to one of the following stressors: restrainers; placement in an empty cage with water at the bottom; or inversion of light/dark cycle. To prevent habituation and to provide an unpredictable feature to the stressors, every day different stressor was administered for four hours, at different time points of the day. During the entire stress paradigm, drugs were administrated through i.p. injection of the relevant treatment, for the duration of 28 days. Upon reaching adulthood and following four weeks of treatment, behavior, peripheral hormones and brain monoamines were measured in order to assess the effects of the novel treatment.
At the end of the experiment, all treated mice were sacrificed. The brains of the mice were placed in a mold on ice. […] Brain-derived neurotrophic factor (BDNF) was measured by EIA. […]

C57BL/6 mice = assay: Open Field Test in mice after chronic stress (MSP); type: in vivo
Method: C57BL/6 male and female infant mice were subjected to chronic stress (MSP) by separation from the dam for 6 hours per day from day 1 to day 14. Anxiety behavior was tested after different anxiolytic treatments. The mice received a daily i.p. injection from day 28 of age for two weeks, of one of the following drugs: Citalopram (10 mg/kg), or the adaptogenic composition of the invention comprising Hawthorn fruit, wheat grain and Lilly Bulb (10 mg/kg). The anxiety behavior was tested in the Open Field Test.

| SMILES | Time spent in the open arms, Elevated Plus Maze [1] | Corticosterone levels following acute restraint stress (Corticosterone [2]) | Time spent inside the field of the control group in comparison to the treated group, novel open field (BALB mice) | Time spent in the open arms in comparison to control group, elevated plus maze (ICR mice) | Sucrose consumption, sucrose test [3] | Corticosterone levels following acute restraint stress in comparison to control group (Corticosterone [4]) | BDNF levels (hippocampus) [5] | Time inside the center of the arena, Open Field Test (C57BL/6 mice; MSP (chronically stressed) C57BL/6 mice, 10 mg/kg i.p. daily for two weeks, saline 1.8 seconds, n=16) | Entries to the inside of the arena, Open Field Test (C57BL/6 mice; MSP C57BL/6 mice, 10 mg/kg i.p. daily for two weeks, saline 1.6 times, n=16) | Time inside the center of the arena, Open Field Test (C57BL/6 mice; treated, unstressed mice, 10 mg/kg i.p., saline unstressed 4.5 seconds) |
| --- | --- | --- | --- | --- | --- | --- | --- | --- | --- | --- |
| CN(C)CCC[C@@]1(c2ccc(F)cc2)OCc2cc(C#N)ccc21 [escitalopram, Escitalopram] | 64 s | 77.3 ng/mL | significantly less pronounced | significantly more time; also recorded: same effect | 55 mL | significantly lower; also recorded: same effect | 16 pc/μg | – | – | – |
| CN(C)CCCC1(c2ccc(F)cc2)OCc2cc(C#N)ccc21 (stereo not shown) [Citalopram] | – | – | – | – | – | – | – | 2.5 s | 2.4 times | 4.6 s |
